Legend:
PLK1 kinase domain = target: T1, PLK1 kinase domain (Homo sapiens, UniProt P53350); experiment: Assay for Inhibition of PLK1 (SPA, 33P-ATP); type: biochemical; conditions: 2 nM PLK1 kinase domain, 1 μM ATP, 22° C.; read-out: PLK1 pIC50 (converted)
T1 construct: made in house; host or cells: baculovirus infected T. ni cells
Method: A. Preparation of 6× N-Terminal His-Tagged PLK Kinase Domain
All procedures were performed at 4° C. Cells were lysed in 50 mM HEPES, 200 mM NaCl, 50 mM imidazole, 5% glycerol; pH 7.5. The homogenate was centrifuged at 14K rpm in a SLA-1500 rotor for 1 hr and the supernatant filtered through a 1.2 micron filter. The supernatant was loaded onto a Nickel chelating Sepharose (Amersham Pharmacia) column and washed with lysis buffer. Protein was eluted using 20%, 30% and 100% buffer B steps where buffer B was 50 mM HEPES, 200 mM NaCl, 300 mM imidazole, 5% glycerol; pH 7.5. Fractions containing PLK were determined by SDS-PAGE. Fractions containing PLK were diluted five-fold with 50 mM HEPES, 1 mM DTT, 5% glycerol; pH 7.5, then loaded on an SP Sepharose (Amersham Pharmacia) column. After washing the column with 50 mM HEPES, 1 mM DTT, 5% glycerol; pH 7.5, PLK was step eluted with 50 mM HEPES, 1 mM DTT, 500 mM NaCl; 5% glycerol; pH 7.5. PLK was concentrated using a 10 kDa molecular weight cutoff membrane and then loaded onto a Superdex 200 gel filtration (Amersham Pharmacia) column equilibrated in 25 mM HEPES, 1 mM DTT, 500 mM NaCl, 5% glycerol; pH 7.5. Fractions containing PLK were determined by SDS-PAGE. PLK was pooled, aliquoted and stored at −80° C. Samples were quality controlled using mass spectrometry, N-terminal sequencing and amino acid analysis.
B. Enzyme Activity +/− Inhibitors was Determined as Follows:
All measurements were obtained under conditions where signal production increased linearly with time and enzyme. Test compounds were added to white 384-well assay plates (0.1 μL for 10 μL and some 20 μL assays, 1 μL for some 20 μL assays) at variable known concentrations in 100% DMSO. DMSO (1-5% final, as appropriate) and EDTA (65 mM in reaction) were used as controls.
Reaction Mix (10 or 20 μL) was quickly added to each well immediately following addition of enzyme via automated liquid handlers and incubated 1-1.5 h at 22° C. The 20 μL enzymatic reactions were stopped with 50 μL of stop mix (50 mM EDTA, 4.0 mg/mL Streptavidin SPA beads in Standard Dulbecco's PBS (without Mg^2+ and Ca^2+), 50 μM ATP) per well. The 10 μL reactions were stopped with 10 μL of stop mix (50 mM EDTA, 3.0 mg/mL Streptavidin-coupled SPA Imaging Beads (“LeadSeeker”) in Standard Dulbecco's PBS (without Mg^2+ and Ca^2+), 50 μM ATP) per well. Plates were sealed with clear plastic seals, spun at 500×g for 1 min or settled overnight, and counted in Packard TopCount for 30 seconds/well (regular SPA) or imaged using a Viewlux imager (LeadSeeker SPA). Signal above background (EDTA controls) was converted to percent inhibition relative to that obtained in control (DMSO-only) wells.

[1] = tested on: HCT-116 (human colon) cells; experiment: Cell-Titer Glo Cell Growth Inhibition Assay; type: cell-based; conditions: HCT-116 cells, 72 h incubation, CellTiter-Glo, read-out: HCT116 IC50
Method: A549-L (human lung), Colo 205 (human colon), HCT-116 (human colon), HT29 (human colon), MX-1 (human breast), SKOV3 (human ovary) and P388 (murine leukemia) cell lines were cultured in RPM11640 containing 10% fetal bovine serum at 37° C. in a 5% CO2 incubator. Cell lines were split into T75 flasks (Falcon #353136) two to three days prior to assay set up at density which yields approximately 70-80% confluency at time of harvest for assay. Cells were harvested using 0.25% trypsin with EDTA (Glibco/Invitrogen #25200-056), Cell counts were performed on cell suspensions using Trypan Blue exclusion staining, cells were then plated in 105 µL of culture media per well at the following densities in 96 well Costar #3916 black flat bottom plates: A549-L 500 cells/well, Colo205 500 cells/well, HCT-116 500 cells/well, HT29 500 cells/well, MX-1 500 cells/well, SKOV3 500 cells/well and P388 250 cells/well. All plates were placed at 5% CO2 37° C. overnight and then test compounds were added the following day. One plate of each cell type was treated with CellTiter-Glo (Promega #G7573) for a day 0 proliferation measurement and read as described below. The test compounds were prepared in clear U bottom polypropylene 96 well plates (Falcon #35-1190 with consecutive two fold dilutions. 9 uL of these dilutions was added into each well of the cell plates. The final concentration of DMSO in all wells was 0.15%. Cells were incubated at 37° C., 5% CO2 for 72 h. Following 72 h of incubation with compounds each plate was developed and read. CellTiter-Glo reagent was added to assay plates using a volume equivalent to the cell culture volume in the wells. Plates were shaken for approximately 2 min and incubated at rt for approximately 15 min and the chemiluminescent signal was read on the Victor V or Envison 2100 reader. […] Concentration of compound that inhibited 50% of cell growth (IC50) was analyzed by 4 or 6 parameter fit of data using XLfit, value of no cell addition was substracted from all samples for background.

T1 sequence (P53350 21-346): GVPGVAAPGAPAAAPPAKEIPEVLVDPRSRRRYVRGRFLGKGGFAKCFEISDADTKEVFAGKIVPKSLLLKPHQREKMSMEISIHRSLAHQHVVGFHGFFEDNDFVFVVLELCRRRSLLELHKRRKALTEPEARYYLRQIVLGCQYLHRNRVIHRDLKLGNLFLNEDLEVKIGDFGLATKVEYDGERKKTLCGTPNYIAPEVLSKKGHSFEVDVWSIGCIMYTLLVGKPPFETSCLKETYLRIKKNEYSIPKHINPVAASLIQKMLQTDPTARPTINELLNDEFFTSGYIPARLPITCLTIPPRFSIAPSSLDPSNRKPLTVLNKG

Row | Compound | IC50 (PLK1 kinase domain) [nM] | IC50 [1] [nM]
1 | C[C@@H](Oc1cc(-n2cnc3cc(-c4ccnc(NCCCN5CCN(C)CC5)n4)ccc32)sc1C(N)=O)c1ccccc1Cl [Example 17, 3-{[(1R)-1-(2-chlorophenyl)ethyl]oxy}-5-[5-(2-{[3-(4-methyl-1-piperazinyl)propyl]amino}-4-pyrimidinyl)-1H-benzimidazol-1-yl]-2-thiophenecarboxamide] | < 100 | < 500
2 | C[C@@H](Oc1cc(-n2cnc3cc(-c4cnc(NCCCN(C)C)nc4)ccc32)sc1C(N)=O)c1ccccc1Cl [Example 18, 3-{[(1R)-1-(2-Chlorophenyl)ethyl]oxy}-5-[5-(2-{[3-(dimethylamino)propyl]amino}-5-pyrimidinyl)-1H-benzimidazol-1-yl]-2-thiophenecarboxamide] | < 100 | < 500
3 | C[C@@H](Oc1cc(-n2cnc3cc(-c4cnc(NCCN(C)C)nc4)ccc32)sc1C(N)=O)c1ccccc1Cl [Example 19, 3-{[(1R)-1-(2-Chlorophenyl)ethyl]oxy}-5-[5-(2-{[2-(dimethylamino)ethyl]amino}-5-pyrimidinyl)-1H-benzimidazol-1-yl]-2-thiophenecarboxamide] | < 100 | < 500
4 | C[C@@H](Oc1cc(-n2cnc3cc(-c4cnc(NCCCN5CCN(C)CC5)nc4)ccc32)sc1C(N)=O)c1ccccc1Cl [Example 20, 3-{[(1R)-1-(2-Chlorophenyl)ethyl]oxy}-5-[5-(2-{[3-(4-methyl-1-piperazinyl)propyl]amino}-5-pyrimidinyl)-1H-benzimidazol-1-yl]-2-thiophenecarboxamide] | < 100 | < 500
5 | C[C@@H](Oc1cc(-n2cnc3cc(-c4cnc(N(C)CCN(C)C)nc4)ccc32)sc1C(N)=O)c1ccccc1Cl [Example 21, 3-{[(1R)-1-(2-chlorophenyl)ethyl]oxy}-5-(5-{2-[[2-(dimethylamino)ethyl](methyl)amino]-5-pyrimidinyl}-1H-benzimidazol-1-yl)-2-thiophenecarboxamide] | < 100 | < 500
6 | C[C@@H](Oc1cc(-n2cnc3cc(-c4cnc(NCCN5CCOCC5)nc4)ccc32)sc1C(N)=O)c1ccccc1Cl [Example 22, 3-{[(1R)-1-(2-chlorophenyl)ethyl]oxy}-5-[5-(2-{[2-(4-morpholinyl)ethyl]amino}-5-pyrimidinyl)-1H-benzimidazol-1-yl]-2-thiophenecarboxamide] | < 100 | < 500
7 | C[C@@H](Oc1cc(-n2cnc3cc(-c4cccc(OCCN5CCCC5)c4)ccc32)sc1C(N)=O)c1ccccc1Cl [Example 23, 3-{[(1R)-1-(2-chlorophenyl)ethyl]oxy}-5-[5-(3-{[2-(1-Pyrrolidinyl)ethyl]oxy}phenyl)-1H-benzimidazol-1-yl]-2-thiophenecarboxamide] | < 100 | < 500
8 | C[C@@H](Oc1cc(-n2cnc3cc(-c4ccc(NC(=O)CN5CCOCC5)cc4)ccc32)sc1C(N)=O)c1ccccc1Cl [Example 24, 3-{[(1R)-1-(2-chlorophenyl)ethyl]oxy}-5-(5-[4-[(4-morpholinylacetyl)amino]phenyl]-1H-benzimidazol-1-yl)-2-thiophenecarboxamide] | < 100 | < 500
9 | C[C@@H](Oc1cc(-n2cnc3cc(-c4ccc(NCCN(C)C)nc4)ccc32)sc1C(N)=O)c1ccccc1C(F)(F)F [Example 25, 5-[5-(6-{[2-(dimethylamino)ethyl]amino}-3-pyridinyl)-1H-benzimidazol-1-yl]-3-({(1R)-1-[2-(trifluoromethyl)phenyl]ethyl}oxy)-2-thiophenecarboxamide] | < 100 | < 500
10 | CNCCNc1ccc(-c2ccc3c(c2)ncn3-c2cc(O[C@H](C)c3ccccc3C(F)(F)F)c(C(N)=O)s2)cn1 [Example 26, 5-[5-(6-{[2-(methylamino)ethyl]amino}-3-pyridinyl)-1H-benzimidazol-1-yl]-3-({(1R)-1-[2-(trifluoromethyl)phenyl]ethyl}oxy)-2-thiophenecarboxamide] | < 100 | < 500
